What was measured:
[1] = target: recombinant human mPGES-1 (Homo sapiens (Human), UniProt O14684); experiment: mPGES-1 enzyme assay (HTRF detection of PGE2); type: biochemical; conditions: recombinant human mPGES-1 microsomes, PGH2 2 μM, 60 seconds; read-out: mPGES-1 inhibitory effect IC50 in the enzyme assay
Summary of the method: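 Microsomes from E. coli expressing recombinant human mPGES-1 (~0.5 μg protein/well) in 0.1 M phosphate pH 7.4 with 2.5 mM GSH, pre-incubated with compound 25 min at room temperature. PGH2 (2 μM final) added, reaction stopped with FeCl2 after 60 s; PGE2 quantified by HTRF (665/620 ratio) against a calibration curve, IC50 by nonlinear regression after background subtraction.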

mPGES-1 in A549 cells = mPGES-1 in A549 cells (Homo sapiens (Human), UniProt O14684); experiment: A549 cell-based assay (PGE2 formation, 50% human serum); conditions: IL-1β 5 ng/ml, 10 nM arachidonic acid, 20-24 h, read-out: mPGES-1 inhibitory effect IC50 in the cell assay
Summary of the method: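 A549 cells in F-12K with 50% human serum were stimulated 20-24 h with 5 ng/ml IL-1β and 10 nM arachidonic acid in presence of compound or vehicle. PGE2 in the cell-free medium was measured by HTRF, normalised to vehicle (100%). IC50 from 6-8 point titrations.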

recombinant human mPGES-1, sequence (O14684 whole entry): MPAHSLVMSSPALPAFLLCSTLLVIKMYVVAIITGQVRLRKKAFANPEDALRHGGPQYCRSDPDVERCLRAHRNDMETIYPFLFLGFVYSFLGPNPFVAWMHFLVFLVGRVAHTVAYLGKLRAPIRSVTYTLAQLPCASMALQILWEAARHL
mPGES-1 in A549 cells, sequence (O14684 whole entry): as above

SMILES	IC50 [1] [nM]	IC50 (mPGES-1 in A549 cells) [nM]
Cn1c(Nc2c(Cl)ccc(CNC(=O)C(C)(C)C)c2Cl)nc2cc(C(=O)N[C@H]3CC[C@H](C(F)(F)F)CC3)c(N3CCC(O)C3)cc21 (stereo partly shown) [Example 84]	3	16
Cn1c(Nc2c(Cl)ccc(CNC(=O)C(C)(C)C)c2Cl)nc2cc(C(=O)N[C@H]3CC[C@H](C(F)(F)F)CC3)c(NCCCO)cc21 [Example 85]	15	86
Cn1c(Nc2c(Cl)ccc(CNC(=O)C(C)(C)C)c2Cl)nc2cc(C(=O)N[C@H]3CC[C@H](C(F)(F)F)CC3)c(N3CC(C)(O)C3)cc21 [Example 86]	4	5
Cn1c(Nc2c(Cl)ccc(CNC(=O)C(C)(C)C)c2Cl)nc2cc(C(=O)N[C@H]3CC[C@H](C(F)(F)F)CC3)c(N3CC(O)C3)cc21 [Example 87]	2	8
CN(Cc1nccn1C)c1cc2c(cc1C(=O)N[C@H]1CC[C@H](C(F)(F)F)CC1)nc(Nc1c(Cl)ccc(CNC(=O)C(C)(C)C)c1Cl)n2C [Example 88]	2	1.5
Cn1c(Nc2c(Cl)ccc(CNC(=O)C(C)(C)C)c2Cl)nc2cc(C(=O)N[C@H]3CC[C@H](C(F)(F)F)CC3)c(N3CCCC(C(F)(F)F)C3)cc21 (stereo partly shown) [Example 89]	2	1
CN(c1cc2c(cc1C(=O)N[C@H]1CC[C@H](C(F)(F)F)CC1)nc(Nc1c(Cl)ccc(CNC(=O)C(C)(C)C)c1Cl)n2C)C1CCC1 [Example 91]	4	< 1
Cn1c(Nc2c(Cl)ccc(CNC(=O)C(C)(C)C)c2Cl)nc2cc(C(=O)N[C@H]3CC[C@H](C(F)(F)F)CC3)c(N3C4CCC3CC4)cc21 [Example 92]	2	1.4
Cn1c(Nc2c(Cl)ccc(CNC(=O)C(C)(C)C)c2Cl)nc2cc(C(=O)N[C@H]3CC[C@H](C(F)(F)F)CC3)c(N3CC4(COC4)C3)cc21 [Example 93]	3	17
Cn1c(Nc2c(Cl)ccc(CNC(=O)C(C)(C)C)c2Cl)nc2cc(C(=O)N[C@H]3CC[C@H](C(F)(F)F)CC3)c(N3CC4(CCC4)C3)cc21 [Example 94]	4	6
Cn1c(Nc2c(Cl)ccc(CNC(=O)C(C)(C)C)c2Cl)nc2cc(C(=O)N[C@H]3CC[C@H](C(F)(F)F)CC3)c(N3CC4CCCC43)cc21 (stereo partly shown) [Example 95]	2	7
Cn1c(Nc2c(Cl)ccc(CNC(=O)C(C)(C)C)c2Cl)nc2cc(C(=O)N[C@H]3CC[C@H](C(F)(F)F)CC3)c(N3CCC3)cc21 [Example 96]	16	21
COC1CN(c2cc3c(cc2C(=O)N[C@H]2CC[C@H](C(F)(F)F)CC2)nc(Nc2c(Cl)ccc(CNC(=O)C(C)(C)C)c2Cl)n3C)C1 [Example 98]	5	5
Cn1c(Nc2c(Cl)ccc(CNC(=O)C(C)(C)C)c2Cl)nc2cc(C(=O)N[C@H]3CC[C@H](C(F)(F)F)CC3)c(N3CC(OC(F)F)C3)cc21 [Example 99]	1	5
Cn1c(Nc2c(Cl)ccc(CNC(=O)C(C)(C)C)c2Cl)nc2cc(C(=O)N[C@H]3CC[C@H](C(F)(F)F)CC3)c(N3CCC(C(F)(F)F)C3)cc21 (stereo partly shown) [Example 100]	3	1
Cn1c(Nc2c(Cl)ccc(CNC(=O)C(C)(C)C)c2Cl)nc2cc(C(=O)N[C@H]3CC[C@H](C(F)(F)F)CC3)c(N3CC4CCCC4C3)cc21 (stereo partly shown) [Example 101]	2	1.5
Cn1c(Nc2c(Cl)ccc(CNC(=O)C(C)(C)C)c2Cl)nc2cc(C(=O)N[C@H]3CC[C@H](C(F)(F)F)CC3)c(N3CC4COCC4C3)cc21 (stereo partly shown) [Example 102]	2	1.5
C#CCN(C)c1cc2c(cc1C(=O)N[C@H]1CC[C@H](C(F)(F)F)CC1)nc(Nc1c(Cl)ccc(CNC(=O)C(C)(C)C)c1Cl)n2C [Example 103, N-(trans-4-Trifluoromethyl-cyclohexyl)-2-{2,6-dichloro-3-[(2,2-dimethyl-propionylamino)-methyl]-phenylamino}-6-[N-methyl-N-propargylamino]-1-methyl-1H-benzimidazole-5-carboxylic acid amide]	1	< 1

SMILES	IC50 [1] [nM]	IC50 (mPGES-1 in A549 cells) [nM]
COC(C)CN(C)c1cc2c(cc1C(=O)N[C@H]1CC[C@H](C(F)(F)F)CC1)nc(Nc1c(Cl)ccc(CNC(=O)C(C)(C)C)c1Cl)n2C (stereo partly shown) [Example 104]	2	1
CN(CCS(C)(=O)=O)c1cc2c(cc1C(=O)N[C@H]1CC[C@H](C(F)(F)F)CC1)nc(Nc1c(Cl)ccc(CNC(=O)C(C)(C)C)c1Cl)n2C [Example 105]	2	10
CC(O)CN(C)c1cc2c(cc1C(=O)N[C@H]1CC[C@H](C(F)(F)F)CC1)nc(Nc1c(Cl)ccc(CNC(=O)C(C)(C)C)c1Cl)n2C (stereo partly shown) [Example 106]	2	< 1
CN(CC1(C)CC1)c1cc2c(cc1C(=O)N[C@H]1CC[C@H](C(F)(F)F)CC1)nc(Nc1c(Cl)ccc(CNC(=O)C(C)(C)C)c1Cl)n2C [Example 107]	1	< 1
Cn1c(Nc2c(Cl)ccc(CNC(=O)C(C)(C)C)c2Cl)nc2cc(C(=O)N[C@H]3CC[C@H](C(F)(F)F)CC3)c(N3CCN(C4CC4)CC3)cc21 [Example 108]	1	< 1
CN(CC(C)(C)O)c1cc2c(cc1C(=O)N[C@H]1CC[C@H](C(F)(F)F)CC1)nc(Nc1c(Cl)ccc(CNC(=O)C(C)(C)C)c1Cl)n2C [Example 109]	2	1
CN(Cc1ccc(F)cc1)c1cc2c(cc1C(=O)N[C@H]1CC[C@H](C(F)(F)F)CC1)nc(Nc1c(Cl)ccc(CNC(=O)C(C)(C)C)c1Cl)n2C [Example 110, N-(trans-4-Trifluoromethyl-cyclohexyl)-2-{2,6-dichloro-3-[(2,2-dimethyl-propionylamino)-methyl]-phenylamino}-6-[N-methyl-N-(4-fluorobenzyl)amino]-1-methyl-1H-benzimidazole-5-carboxylic acid amide]	2	1.6
CN(CC(N)=O)c1cc2c(cc1C(=O)N[C@H]1CC[C@H](C(F)(F)F)CC1)nc(Nc1c(Cl)ccc(CNC(=O)C(C)(C)F)c1Cl)n2C [Example 111]	2	22
CN(CC#N)c1cc2c(cc1C(=O)N[C@H]1CC[C@H](C(F)(F)F)CC1)nc(Nc1c(Cl)ccc(CNC(=O)C(C)(C)C)c1Cl)n2C [Example 112, N-(trans-4-Trifluoromethyl-cyclohexyl)-2-{2,6-dichloro-3-[(2,2-dimethyl-propionylamino)-methyl]-phenylamino}-6-[N-methyl-N-cyanomethyl-amino]-1-methyl-1H-benzimidazole-5-carboxylic acid amide]	3	1
Cn1ccnc1CNc1cc2c(cc1C(=O)N[C@H]1CC[C@H](C(F)(F)F)CC1)nc(Nc1c(Cl)ccc(CNC(=O)C(C)(C)C)c1Cl)n2C [Example 113]	8	62
CN(c1cc2c(cc1C(=O)N[C@H]1CC[C@H](C(F)(F)F)CC1)nc(Nc1c(Cl)ccc(CNC(=O)C(C)(C)C)c1Cl)n2C)C1CCSC1 (stereo partly drawn) [Example 117, N-(trans-4-trifluoromethyl-cyclohexyl)-2-{2,6-dichloro-3-[(2,2-dimethyl-propionylamino)-methyl]-phenylamino}-6-[N-methyl-N-(tetrahydro-thiophen-3-yl)-amino]-1-methyl-1H-benzimidazole-5-carboxylic acid amide]	2	2
CN(c1cc2c(cc1C(=O)N[C@H]1CC[C@H](C(F)(F)F)CC1)nc(Nc1c(Cl)ccc(CNC(=O)C(C)(C)C)c1Cl)n2C)C1CC[S+]([O-])C1 (stereo partly drawn) [Example 118, N-(trans-4-Trifluoromethyl-cyclohexyl)-2-{2,6-dichloro-3-[(2,2-dimethyl-propionylamino)-methyl]-phenylamino}-6-[N-methyl-N-(1-oxo-tetrahydro-thiophen-3-yl)-amino]-1-methyl-1H-benzimidazole-5-carboxylic acid amide]	3	10
CN(c1cc2c(cc1C(=O)N[C@H]1CC[C@H](C(F)(F)F)CC1)nc(Nc1c(Cl)ccc(CNC(=O)C(C)(C)C)c1Cl)n2C)C1CCS(=O)(=O)C1 (stereo partly drawn) [Example 119, N-(trans-4-Trifluoromethyl-cyclohexyl)-2-{2,6-dichloro-3-[(2,2-dimethyl-propionylamino)-methyl]-phenylamino}-6-[N-methyl-N-(1,1-dioxo-tetrahydro-thiophen-3-yl)-amino]-1-methyl-1H-benzimidazole-5-carboxylic acid amide]	2	1
Cn1c(Nc2c(Cl)ccc(CNC(=O)C(C)(C)F)c2Cl)nc2cc(C(=O)N[C@H]3CC[C@H](C(F)(F)F)CC3)c(N3CC[C@@H](F)C3)cc21 [Example 120]	3	1
Cn1c(Nc2c(Cl)ccc(CNC(=O)C(C)(C)C)c2Cl)nc2cc(C(=O)N[C@H]3CC[C@H](C(F)(F)F)CC3)c(N3CCC4(CC4)C3)cc21 [Example 121]	3	2
Cn1c(Nc2c(Cl)ccc(CNC(=O)C(C)(C)C)c2Cl)nc2cc(C(=O)N[C@H]3CC[C@H](C(F)(F)F)CC3)c(N3CC4CCC4C3)cc21 (stereo partly shown) [Example 122]	3	1
Cn1c(Nc2c(Cl)ccc(CNC(=O)C(C)(C)C)c2Cl)nc2cc(C(=O)N[C@H]3CC[C@H](C(F)(F)F)CC3)c(N3C[C@H]4C[C@@H](C3)[C@H]4O)cc21 [Example 126]	2	1

From patent publication US8674113B2, “Compounds” (Boehringer Ingelheim International GmbH, priority 2010, dated 2014)
